For 71 compounds, LC retention time results are on record in the RepoRT retention time repository (doi:10.1016/j.aca.2011.01.006).

The series is described as follows: Waters SunFire C18, 150 × 2.1 mm, 3.5 µm, 35 °C, 0.3 mL/min, estimated dead time 1.1 min; A: water + 0.1% formic acid; B: acetonitrile + 0.1% formic acid; gradient (min/%B) 0/20 5/20 20/50 25/100. The settings on record: stereoisomer not certain.
For the compound `CCN(CCO)CCn1c(Cc2ccccc2)nc2c1c(=O)n(C)c(=O)n2C`, the LC retention time was 1.5 min.
Then `COC(=O)C(c1ccccc1)C1CCCCN1` (stereo unspecified), with 1.8 min; and `Cc1cccc(C(C)c2cnc[nH]2)c1C` (stereo unspecified), with 2.8 min.
With `CCCC[N+]1(C)C2CC(OC(=O)C(CO)c3ccccc3)CC1C1OC12` (stereo unspecified), the LC retention time was 2.3 min.
Then `CC12C=CC(=O)C=C1CCC1C2C(O)CC2(C)C1CCC2(O)C(=O)CO` (stereo unspecified), with 12.3 min; and `Cn1c(=O)c2c(ncn2CCO)n(C)c1=O`, with 2 min.
For the compound `COc1ccc(CN(CCN(C)C)c2ccccn2)cc1`, the LC retention time was 2 min.
As to `Cn1c(=O)c2c(ncn2CC(O)CO)n(C)c1=O` (stereo unspecified), the LC retention time is 1.9 min.
Consider `CN1CC(O)c2cc(N=NC(N)=O)c(O)cc21` (stereo unspecified), for which the LC retention time is 1.7 min.
As to `CCCCCCCCC(=O)NCc1ccc(O)c(OC)c1`, the LC retention time was 22.4 min.
For the compound `CCC1(c2ccccc2)C(=O)NCNC1=O`, the LC retention time is 4.3 min.
`CC[N+](C)(CC)CCOC(=O)C(O)(c1ccccc1)C1CCCCC1` (stereo unspecified): the LC retention time was 9 min.
Then `CN(C)CCCOc1nn(Cc2ccccc2)c2ccccc12`, with 9.9 min.
`CCN(CC)CC(=O)Nc1c(C)cccc1C`: the LC retention time was 1.8 min.
`CCCCC1C(=O)N(c2ccccc2)N(c2ccc(O)cc2)C1=O` (stereo unspecified): the LC retention time is 19.8 min.
As for `CC(C)[N+]1(C)C2CCC1CC(OC(=O)C(CO)c1ccccc1)C2` (stereo unspecified), the LC retention time was 1.4 min.
Then `COc1ccccc1OCC(O)CO` (stereo unspecified), with 5 min; and `CC(C)[N+](C)(CCOC(=O)C1c2ccccc2Oc2ccccc21)C(C)C`, with 9.8 min.
In the case of `CCCN(CCC)S(=O)(=O)c1ccc(C(=O)O)cc1`, the LC retention time is 21.3 min.
With `CC(=O)Nc1nnc(S(N)(=O)=O)s1`, the LC retention time is 2.3 min.
For `Oc1ccc2c(c1)C13CCCCC1(O)C(C2)N(CC1CCC1)CC3` (stereo unspecified), the LC retention time was 2.5 min.
`CC12CCC(=O)C=C1CCC1C2C(O)CC2(C)C1CCC2(O)C(=O)CO` (stereo unspecified): the LC retention time is 12.6 min.
Take `Cn1c(=O)c2c(ncn2C)n(C)c1=O`: the LC retention time was 2.4 min.
In the case of `O=C1NC(=O)C(c2ccccc2)(c2ccccc2)N1`, the LC retention time was 14.7 min.
In the case of `Cc1c(NC=O)c(=O)n(-c2ccccc2)n1C`, the LC retention time is 2.6 min.
As for `CC(=O)c1ccc2c(c1)N(CCCN(C)C)c1ccccc1S2`, the LC retention time is 8.7 min.
Then `N=C1NC(=O)C(c2ccccc2)O1` (stereo unspecified), with 3.4 min; and `CCCn1cnc2c1c(=O)n(CCCCC(C)=O)c(=O)n2C`, with 12.1 min; and `Cc1cccc(C)c1NC(=O)C1CCCCN1C` (stereo unspecified), with 1.8 min.
With `CN(C)CCN(Cc1ccccc1)c1ccccn1`, the LC retention time was 1.9 min.
For the compound `CC12CCC(=O)C=C1C=CC1C2CCC2(C)C1CCC21CCC(=O)O1` (stereo unspecified), the LC retention time is 22 min.
Then `CCOC(=O)C1(c2ccccc2)CCN(C)CC1`, with 2.2 min.
In the case of `C[N+]12CCC(CC1)C(OC(=O)C(O)(c1ccccc1)c1ccccc1)C2` (stereo unspecified), the LC retention time is 3.4 min.
For `C[N+]1(C)CCCC(OC(=O)C(O)(c2ccccc2)c2ccccc2)C1` (stereo unspecified), the LC retention time is 3 min.
Regarding `CC(=O)N=c1sc(S(N)(=O)=O)nn1C`, the LC retention time was 3.5 min.
On to `O=C(c1ccccc1)c1ccc2n1CCC2C(=O)O` (stereo unspecified), for which the LC retention time was 16.3 min.
Then `CCC1(O)CCC2C3CCC4=CC(=O)CCC4=C3C=CC21CC` (stereo unspecified), with 22.9 min; and `Nc1nc(N)c2nc(-c3ccccc3)c(N)nc2n1`, with 2.9 min.
Regarding `CN1CCOC(c2ccccc2)c2ccccc2C1` (stereo unspecified), the LC retention time is 2.9 min.
On to `C[N+]1(CCC(O)(c2ccccc2)c2cccs2)CCOCC1` (stereo unspecified), for which the LC retention time is 2.2 min.
With `Cn1cnc2c1c(=O)[nH]c(=O)n2C` the figure was 2 min; with `COc1ccc(CCN(C)CCCC(C#N)(c2ccc(OC)c(OC)c2)C(C)C)cc1OC` (stereo unspecified), 10.6 min.
With `CC1(C)OC(=O)C(OCC2CC2)=C1c1ccc(S(C)(=O)=O)cc1` the figure was 20.4 min; with `CN(C)CCC=C1c2ccccc2CCc2ccccc21`, 10.3 min.
With `CCCCN1CCCCC1C(=O)Nc1c(C)cccc1C` (stereo unspecified) the figure was 2.9 min.
`CCCCNc1cc(C(=O)O)cc(S(N)(=O)=O)c1Oc1ccccc1`: the LC retention time is 20.7 min.
Then `CC(C)(C)NCC(O)COc1nsnc1N1CCOCC1` (stereo unspecified), with 1.8 min; and `Cc1cccc(C)c1NC1=NCCCS1`, with 1.8 min; and `COc1ccc2nc(S(=O)Cc3ncc(CO)c(OC)c3C)[nH]c2c1` (stereo unspecified), with 2.7 min.
Regarding `CC(C)(C)C(=O)SCC(=O)C1(O)CCC2C3CCC4=CC(=O)CCC4(C)C3C(O)CC21C` (stereo unspecified), the LC retention time is 24 min.
As to `CC(C(=O)O)c1cccc(C(=O)c2ccccc2)c1` (stereo unspecified), the LC retention time was 19.3 min.
With `CCCC1OC2CC3C4CCC5=CC(=O)C=CC5(C)C4C(O)CC3(C)C2(C(=O)CO)O1` (stereo unspecified), the LC retention time is 20.1 min.
With `CC(C)[N+](C)(CCC(C(N)=O)(c1ccccc1)c1ccccc1)C(C)C` the figure was 3.4 min; with `CCCCOc1cc(C(=O)OCCN(CC)CC)ccc1N`, 4.2 min; with `Cn1c(=O)c2c(ncn2CC(=O)O)n(C)c1=O`, 2.42 min.
For `C=CCC1(O)CCC2C3CCC4=CC(=O)CCC4=C3C=CC21C` (stereo unspecified), the LC retention time was 22.1 min.
In the case of `CS(=O)(=O)c1ccc(C2=C(c3ccccc3)C(=O)OC2)cc1`, the LC retention time is 16.8 min.
Take `CCC1(c2cnc[nH]2)Cc2ccccc2C1`: the LC retention time was 3 min.
With `CCOC(=O)c1ccc(N)cc1`, the LC retention time is 12.3 min.
As to `CCN(CC)CCOCCOC(=O)C1(c2ccccc2)CCCC1`, the LC retention time was 10 min.
With `CCCc1nc(C)c2c(=O)[nH]c(-c3cc(S(=O)(=O)N4CCN(CC)CC4)ccc3OCC)nn12`, the LC retention time is 3.4 min.
With `CC1CC2C(C(O)CC3(C)C2CCC3(O)C(=O)CO)C2(C)C=CC(=O)C=C12` (stereo unspecified) the figure was 14.6 min; with `CCCCNc1ccc(C(=O)OCCN(C)C)cc1`, 4.9 min.
`CS(=O)(=O)Nc1ccc([N+](=O)[O-])cc1Oc1ccccc1`: the LC retention time is 21.9 min.
As for `CC12CCC(=O)C=C1C=CC1C2CCC2(C)C1CCC2(O)CCC(=O)O` (stereo unspecified), the LC retention time is 16.1 min.
With `COc1cc(OC)c(C(=O)CCCN2CCCC2)c(OC)c1` the figure was 2 min; with `Cn1c(=O)c2[nH]cnc2n(C)c1=O`, 1.9 min; with `CC(=O)CCCCn1c(=O)c2c(ncn2C)n(C)c1=O`, 5.4 min.
Then `CC[N+]1(C)CCCC(OC(=O)C(O)(c2ccccc2)c2ccccc2)C1` (stereo unspecified), with 3.4 min; and `O=C1NC(=O)N(N=Cc2ccc(-c3ccc([N+](=O)[O-])cc3)o2)C1O` (stereo unspecified), with 15.2 min.
As to `CC(C)c1c(CN(C)C(C)Cc2ccccc2)n(C)n(-c2ccccc2)c1=O` (stereo unspecified), the LC retention time is 10.8 min.
